Measurements from ChEMBL document CHEMBL3045014, “Synthesis and biological activity of novel anti-juvenile hormone agents” (J Pestic Sci, 2008).
Active and inactive are the calls of the source. The rule behind the calls is not given here.

Tests used:
Format in all cases: functional, organism-based
Bombyx mori [1] = assay: Induction of precocious metamorphosis in Bombyx mori
Bombyx mori [2] = assay: Induction of precocious metamorphosis in newly-molted fourth-instar larvae of Bombyx mori
Bombyx mori [3] = assay: Induction of precocious metamorphosis in newly-molted fourth-instar larvae of Bombyx mori at 1 ug
Bombyx mori [4] = assay: Induction of precocious metamorphosis in fourth-instar larvae of Bombyx mori at 0.1 ug
Bombyx mori [5] = assay: Induction of precocious metamorphosis in fourth-instar larvae of Bombyx mori at 40 ug
Bombyx mori [6] = assay: Induction of precocious metamorphosis in fourth-instar larvae of Bombyx mori at 10 ug
Bombyx mori [7] = assay: Induction of precocious metamorphosis in fourth-instar larvae of Bombyx mori in presence of JH agonist methoprene
Bombyx mori [8] = assay: Induction of precocious metamorphosis in fourth-instar larvae of Bombyx mori in presence of 20-hydroxyecdysone
Bombyx mori [9] = assay: Induction of precocious metamorphosis in 24-hr old 3rd-instar larvae of Bombyx mori
Bombyx mori [10] = assay: Induction of precocious metamorphosis in fourth-instar larvae of Bombyx mori

CCCCC(COc1ccc(C(=O)OCC)cc1)Oc1ccc(C)nc1 (stereo not given)
Activity (Bombyx mori [1]): Active | Activity (Bombyx mori [2]): Active

CCCC[C@@H](COc1ccc(C(=O)OCC)cc1)Cc1ccccc1
Activity (Bombyx mori [3]): Active | Activity (Bombyx mori [4]): Active | Activity (Bombyx mori [5]): inactive | Activity (Bombyx mori [6]): inactive

CCCCC(COc1ccc(C(=O)OCC)cc1)Cc1ccccc1 (racemic)
Activity (Bombyx mori [7]): inactive | Activity (Bombyx mori [1]): Active | Activity (Bombyx mori [2]): Dose-dependent effect | Activity (Bombyx mori [8]): Active | Activity (Bombyx mori [9]): inactive | Activity (Bombyx mori [3]): Active | Activity (Bombyx mori [10]): Active

CCOC(=O)c1ccc(OCC(Oc2ccc(C)nc2)C(C)(C)C)cc1 (stereo not given)
Activity (Bombyx mori [1]): Active

CCOC(=O)c1ccc(OCC(CC)OC(=O)C(C)(C)C)cc1 (stereo not given)
Activity (Bombyx mori [2]): inactive | Activity (Bombyx mori [9]): inactive | Activity (Bombyx mori [10]): Active

CCCCC(COc1ccc(C(=O)OCC)cc1)Oc1ccccc1 (stereo not given)
Activity (Bombyx mori [1]): Active | Activity (Bombyx mori [2]): Active

CCOC(=O)c1ccc(OCC(CC)Oc2ccc(C)nc2)cc1 (stereo not given)
Activity (Bombyx mori [1]): Active

CCCC[C@H](COc1ccc(C(=O)OCC)cc1)Cc1ccccc1
Activity (Bombyx mori [3]): Active | Activity (Bombyx mori [4]): Active | Activity (Bombyx mori [5]): inactive | Activity (Bombyx mori [6]): inactive

CCCCCC(COc1ccc(C(=O)OCC)cc1)Cc1ccccc1 (stereo not given)
Activity (Bombyx mori [1]): Active
